Experimental data: PubChem BioAssay (NCI)
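Method: 48-hour compound exposure of cells in 96-well plates, five concentrations, linear interpolation of endpoints. Abbreviation: GI50, concentration required for 50% inhibition of growth. TGI: total growth inhibition.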

Experiments:
Test in all cases: NCI anticancer screen, dose series, 48 h
786-0 renal = test system: 786-0 renal
HS 578T breast = test system: HS 578T breast
M14 melanoma = test system: M14 melanoma
MDA-N = test system: MDA-N
OVCAR-3 ovarian = test system: OVCAR-3 ovarian
SR leukemia = test system: SR leukemia
T-47D breast = test system: T-47D breast
TK-10 renal = test system: TK-10 renal
DLD-1 colon = test system: DLD-1 colon
HOP-18 NSCLC = test system: HOP-18 NSCLC
KM20L2 colon = test system: KM20L2 colon
M19-MEL melanoma = test system: M19-MEL melanoma
SNB-78 CNS = test system: SNB-78 CNS
XF 498 CNS = test system: XF 498 CNS

SMILES	TGI (786-0 renal) [µM]	TGI (HS 578T breast) [µM]	TGI (M14 melanoma) [µM]	TGI (MDA-N) [µM]	TGI (OVCAR-3 ovarian) [µM]	TGI (SR leukemia) [µM]	TGI (T-47D breast) [µM]	TGI (TK-10 renal) [µM]	GI50 (HS 578T breast) [µM]	GI50 (M14 melanoma) [µM]	GI50 (SR leukemia) [µM]	GI50 (T-47D breast) [µM]	GI50 (TK-10 renal) [µM]	TGI (DLD-1 colon) [µM]	TGI (HOP-18 NSCLC) [µM]	TGI (KM20L2 colon) [µM]	TGI (M19-MEL melanoma) [µM]	TGI (SNB-78 CNS) [µM]	TGI (XF 498 CNS) [µM]
CC(CO)(CO)Nc1ncnc2ccccc12	> 100	> 100	> 100	> 100	> 100	> 100	> 100	> 100											
Fc1ccc(-c2nnc3sc(COc4ccccc4Cl)nn23)cc1Cl		91.6	> 100			76.4	> 100	> 100	35.2	34.9	23.3	32.8	> 100						
Nc1nnc(N)n1NC(=O)C(=O)Nc1ccc([N+](=O)[O-])cc1						> 100		> 100						> 100	> 100	> 100	> 100	> 100	> 100
Cn1c(Sc2ccc(-c3cccnc3)n2C)ccc1-c1cccnc1	43.5	9.76	37	25.3	27.3	9.79	44.2	32.4											
COc1cc2c(cc1Oc1ccc(OC)c3c1CC1c4c(cc(OC)c(OC)c4-3)CCN1C)CC1c3c(cc(OC)c(OC)c3-2)CCN1C (stereo not drawn)					14.9									9.17	23.8	3.59	3.37	20.2	4.29
COc1ccc(CC2c3cc(OC)c(OC)c(OC)c3CC[N+]2(C)C)cc1Oc1ccc(CC2c3cc4c(c(OC)c3CCN2C)OCO4)cc1 (stereo not drawn)	> 100	> 100	> 100	> 100	> 100	> 100	> 100	> 100											
C[n+]1ccc(-c2cc[n+](C)cc2)cc1	> 100		> 35.9		> 46.6	> 31.6		> 100						> 47.2	> 100	> 100	> 21.6	> 58.4	17
COc1cc(C)c2c(=O)c3c(oc2c1)C(=O)c1c(O)c(OC)cc(O)c1C3=O					2.4									10.1	3.9	19.9	4.04	7.2	2.29
O=C(O)C1=NNC(C(=O)O)=NN1	> 100		> 100		> 100			> 100						> 100	> 100	> 100	> 100	> 100	
COc1cc(O)c2c(c1)C(=O)c1cc(C)cc(O)c1C2=O			> 100		> 100	> 100								> 100	> 100	> 100	> 100	> 100	
CC(C)=CCC[C@](C)(O[C@@H]1O[C@H](CO)[C@@H](O)[C@H](O)[C@H]1O)[C@H]1CC[C@]2(C)[C@@H]1[C@H](O)C[C@@H]1[C@@]3(C)CC[C@H](O)C(C)(C)[C@@H]3[C@@H](O[C@@H]3O[C@H](CO)[C@@H](O)[C@H](O)[C@H]3O)C[C@]12C	> 100	> 100	> 100	> 100	> 100	> 100	> 100	> 100											
NC(=O)Nc1cc(O)ccc1N=Nc1ccc(S(=O)(=O)Nc2ccccn2)cc1			> 100		> 100			> 100							> 100	> 100	> 100	> 100	> 100
CCCCCCCCCCCCCCCCOCC(COP(=O)([O-])OCC[n+]1ccc(N(C)C)cc1)OCC (stereo not drawn)	34.2	31.8	26.7	30.8	24.8	23.9	37.3	28.9											
